Assay results reported in patent US20230416227A1, “PLASMA KALLIKREIN INHIBITORS” (Merck Sharp & Dohme LLC, priority 2020, published 2023).
pIC50: −log10 of the molar value.

What was measured:
Human plasma kallikrein = biological target: T1, Human plasma kallikrein (Homo sapiens, UniProt P03952); assay: Plasma Kallikrein Assay; type: biochemical; settings: purified Human plasma kallikrein 0.5 nM, substrate Acetyl-K-P-R-AFC, pH 7.4
T1 construct: yields a heavy chain (371 amino acids) and a light chain (248 amino acids); purchased Enzyme Research Laboratories
T1 sequence (P03952 391-638 limits assumed): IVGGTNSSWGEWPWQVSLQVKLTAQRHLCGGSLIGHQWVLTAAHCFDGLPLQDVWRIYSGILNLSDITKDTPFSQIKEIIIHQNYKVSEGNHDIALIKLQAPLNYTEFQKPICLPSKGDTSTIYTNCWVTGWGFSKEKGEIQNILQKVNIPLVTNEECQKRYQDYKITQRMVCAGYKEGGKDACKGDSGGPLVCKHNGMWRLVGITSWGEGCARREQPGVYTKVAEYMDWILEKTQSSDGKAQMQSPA
T1 sequence (P03952 20-390 partner limits assumed): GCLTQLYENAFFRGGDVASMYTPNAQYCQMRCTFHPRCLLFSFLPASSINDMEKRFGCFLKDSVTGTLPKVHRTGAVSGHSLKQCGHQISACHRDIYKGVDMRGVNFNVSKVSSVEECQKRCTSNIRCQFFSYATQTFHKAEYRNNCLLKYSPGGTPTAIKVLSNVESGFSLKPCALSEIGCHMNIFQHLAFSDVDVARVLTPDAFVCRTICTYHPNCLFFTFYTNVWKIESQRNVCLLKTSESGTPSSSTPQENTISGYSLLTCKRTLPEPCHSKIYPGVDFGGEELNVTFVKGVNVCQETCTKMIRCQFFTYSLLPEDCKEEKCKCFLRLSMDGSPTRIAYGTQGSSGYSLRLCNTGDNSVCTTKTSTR

human factor XIa = human factor XIa (Homo sapiens, UniProt P03951); assay: Factor XIa Assay; type: biochemical; settings: human factor XIa 0.04 nM, substrate GPR-AFC, 30 min pre-incubation at 25° C., pH 7.4; read-out: FXIa IC50
human factor XIa, sequence (P03951 388-625 limits assumed): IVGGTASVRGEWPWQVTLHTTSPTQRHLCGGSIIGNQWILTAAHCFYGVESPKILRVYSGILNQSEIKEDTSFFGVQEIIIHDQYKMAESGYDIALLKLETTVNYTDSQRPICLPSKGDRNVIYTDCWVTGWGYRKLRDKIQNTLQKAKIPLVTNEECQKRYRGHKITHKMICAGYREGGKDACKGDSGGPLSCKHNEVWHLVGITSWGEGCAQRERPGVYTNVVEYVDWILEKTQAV
human factor XIa, sequence (P03951 19-387 partner limits assumed): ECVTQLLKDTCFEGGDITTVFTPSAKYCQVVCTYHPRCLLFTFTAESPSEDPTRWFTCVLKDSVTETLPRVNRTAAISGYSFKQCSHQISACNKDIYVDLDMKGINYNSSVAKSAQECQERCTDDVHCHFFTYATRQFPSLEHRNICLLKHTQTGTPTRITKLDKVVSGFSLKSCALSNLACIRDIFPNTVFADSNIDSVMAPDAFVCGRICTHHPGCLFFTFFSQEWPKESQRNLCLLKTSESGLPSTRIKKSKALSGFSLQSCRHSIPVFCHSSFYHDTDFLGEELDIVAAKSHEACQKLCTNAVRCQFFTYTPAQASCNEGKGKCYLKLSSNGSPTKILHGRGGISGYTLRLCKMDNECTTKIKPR
Method: The effectiveness of a compound of the present invention as an inhibitor of Coagulation factor XIa can be determined using a relevant purified serine protease, and an appropriate synthetic substrate. The rate of hydrolysis of the chromogenic or fluorogenic substrate by the relevant serine protease was measured both in the absence and presence of compounds of the present invention. Assays were conducted at rt or at 37° C. […] A decrease in the rate of fluorescence change in the presence of inhibitor is indicative of enzyme inhibition. Such methods are known to one skilled in the art. The results of this assay are expressed as the half-maximal inhibitory concentrations (IC50), or the inhibitory constant, Ki.
Compounds were pre-incubated for 30 min at 25° C. with human (0.04 nM) factor XIa in 50 mM HEPES buffer with 150 mM sodium chloride, 5 mM calcium chloride, 0.1% PEG 8000, pH 7.4. factor XIa enzymatic activity was determined by addition of the substrate glycine-proline-arginine-7-amido-4-trifluoromethylcoumarin (GPR-AFC) and measurement of the fluorescence at 400/505 nm after a 60 min incubation at 25° C. The % inhibition for each data point was calculated from the data and analyzed using the log (inhibitor) vs. response four parameters equation to determine the half-maximal inhibitory concentrations (IC50). The IC50 were converted to equilibrium inhibitory constants (Ki) using the Cheng-Prusoff equation.

pIC50 (Human plasma kallikrein)	pIC50 (human factor XIa)	SMILES
8.82	5.32	C[C@@H](c1cnc(N2C[C@@H]3C[C@@H]3[C@@H]2C#N)nc1)n1cc(NC(=O)c2cncc(-c3c(C(F)F)ccc(Cl)c3F)n2)cn1 [Example 199, 6-(3-chloro-6-(difluoromethyl)-2-fluorophenyl)-N-(1-((S)-1-(2-((1S,2R,5R)-2-cyano-3-azabicyclo[3.1.0]hexan-3-yl)pyrimidin-5-yl)ethyl)-1H-pyrazol-4-yl)pyrazine-2-carboxamide]
8.03	5.09	CC(c1cnc(N2Cc3cccnc3C2)nc1)n1cc(NC(=O)c2cncc(-c3c(C(F)F)ccc(Cl)c3F)n2)cn1 (stereo not drawn) [Example 83, 6-(3-Chloro-6-(difluoromethyl)-2-fluorophenyl)-N-(1-(1-(2-(5,7-dihydro-6H-pyrrolo[3,4-b]pyridin-6-yl)pyrimidin-5-yl)ethyl)-1H-pyrazol-4-yl)pyrazine-2-carboxamide]
7.19	5.09	Cc1nc(N2CCC2)ncc1[C@H](C)n1cc(NC(=O)c2cncc(-c3c(C(F)F)ccc(Cl)c3F)n2)cn1 (single isomer, unassigned) [Example 69]
7.87	5.07	C[C@@H](O)[C@H]1[C@H]2C[C@H]2CN1c1ncc(Cn2cc(NC(=O)c3cncc(-c4c(C(F)F)ccc(Cl)c4F)n3)cn2)cn1 [Example 87, 6-(3-Chloro-6-(difluoromethyl)-2-fluorophenyl)-N-(1-((2-((1S,2R,5R)-2-((R)-1-hydroxyethyl)-3-azabicyclo[3.1.0]hexan-3-yl)pyrimidin-5-yl)methyl)-1H-pyrazol-4-yl)pyrazine-2-carboxamide]
7.43	5.47	O=C(Nc1cnn(Cc2cnc(N3CCCC3CCO)nc2)c1)c1cncc(-c2c(C(F)F)ccc(Cl)c2F)n1 (single isomer, unassigned) [Example 105, (S or R)-6-(3-Chloro-6-(difluoromethyl)-2-fluorophenyl)-N-(1-((2-(2-(2-hydroxyethyl)pyrrolidin-1-yl)pyrimidin-5-yl)methyl)-1H-pyrazol-4-yl)pyrazine-2-carboxamide]
9.00	5.48	CC(c1cnc(N2CC[C@H]2[C@@H](C)N2C[C@@H](O)[C@@H](O)C2)nc1)n1cc(NC(=O)c2cncc(-c3c(C(F)F)ccc(Cl)c3F)n2)cn1 (stereo partly drawn) [Example 187, 6-(3-Chloro-6-(difluoromethyl)-2-fluorophenyl)-N-(1-(1-(2-((S)-2-((R)-1-((3R,4S)-3,4-dihydroxypyrrolidin-1-yl)ethyl)azetidin-1-yl)pyrimidin-5-yl)ethyl)-1H-pyrazol-4-yl)pyrazine-2-carboxamide]
8.09	6.38	CC(c1cnc(N2CCC2)nc1)n1cc(NC(=O)c2cncc(-c3cc(Cl)ccc3-n3cnnn3)n2)cn1 (single isomer, unassigned) [Example 58, (S or R)-N-(1-(1-(2-(Azetidin-1-yl)pyrimidin-5-yl)ethyl)-1H-pyrazol-4-yl)-6-(5-chloro-2-(1H-tetrazol-1-yl)phenyl)pyrazine-2-carboxamide]
8.27	5.33	C[C@@H](c1cnc(N2C[C@@H]3C[C@@H]3[C@@H]2CO)nc1)n1cc(NC(=O)c2cncc(-c3c(C(F)F)ccc(Cl)c3F)n2)cn1 (single isomer, unassigned) [Example 76, 6-(3-Chloro-6-(difluoromethyl)-2-fluorophenyl)-N-(1-((S or R)-1-(2-((1S,2R,5R or 1R,2S,5S)-2-(hydroxymethyl)-3-azabicyclo[3.1.0]hexan-3-yl)pyrimidin-5-yl)ethyl)-1H-pyrazol-4-yl)pyrazine-2-carboxamide]
7.67	5.39	O=C(O)c1ncc(-c2c(C(F)F)ccc(Cl)c2F)nc1C(=O)Nc1cnn(Cc2cnc(N3CCC3)nc2)c1 [Example 137, 3-((1-((2-(Azetidin-1-yl)pyrimidin-5-yl)methyl)-1H-pyrazol-4-yl)carbamoyl)-5-(3-chloro-6-(difluoromethyl)-2-fluorophenyl)pyrazine-2-carboxylic acid]
8.38	6.34	Cc1nc(N2CCC2)ncc1Cn1cc(NC(=O)c2cncc(-c3c(C(F)F)ccc(Cl)c3F)n2)cn1 [Example 8, N-(1-((2-(Azetidin-1-yl)-4-methylpyrimidin-5-yl)methyl)-1H-pyrazol-4-yl)-6-(3-chloro-6-(difluoromethyl)-2-fluorophenyl)pyrazine-2-carboxamide]
8.08	5.98	N#Cc1cc(N2CCC2)ncc1Cn1cc(NC(=O)c2cncc(-c3c(C(F)F)ccc(Cl)c3F)n2)cn1 [Example 16, N-(1-((6-(Azetidin-1-yl)-4-cyanopyridin-3-yl)methyl)-1H-pyrazol-4-yl)-6-(3-chloro-6-(difluoromethyl)-2-fluorophenyl)pyrazine-2-carboxamide]
8.70	5.20	CC(c1cnc(N2CC[C@H]2CN2C[C@@H](O)[C@H](O)C2)nc1)n1cc(NC(=O)c2cncc(-c3c(C(F)F)ccc(Cl)c3F)n2)cn1 (stereo partly drawn) [Example 168, 6-(3-Chloro-6-(difluoromethyl)-2-fluorophenyl)-N-(1-(1-(2-((S)-2-(((3R,4R)-3,4-dihydroxypyrrolidin-1-yl)methyl)azetidin-1-yl)pyrimidin-5-yl)ethyl)-1H-pyrazol-4-yl)pyrazine-2-carboxamide]
7.57	5.05	NC(=O)[C@H]1CCCN1c1ncc(Cn2cc(NC(=O)c3cncc(-c4c(C(F)F)ccc(Cl)c4F)n3)cn2)cn1 [Example 97, (R)-N-(1-((2-(2-Carbamoylpyrrolidin-1-yl)pyrimidin-5-yl)methyl)-1H-pyrazol-4-yl)-6-(3-chloro-6-(difluoromethyl)-2-fluorophenyl)pyrazine-2-carboxamide]
8.17	5.70	O=C(Nc1cnn(Cc2cnc(N3CC4CC4C3)nc2)c1)c1cncc(-c2c(C(F)F)ccc(Cl)c2F)n1 (stereo not drawn) [Example 80, N-(1-((2-(3-Azabicyclo[3.1.0]hexan-3-yl)pyrimidin-5-yl)methyl)-1H-pyrazol-4-yl)-6-(3-chloro-6-(difluoromethyl)-2-fluorophenyl)pyrazine-2-carboxamide]
7.61	6.09	NC(=O)c1cc(N2CCC2)ncc1Cn1cc(NC(=O)c2cncc(-c3c(C(F)F)ccc(Cl)c3F)n2)cn1 [Example 206, N-(1-((6-(Azetidin-1-yl)-4-carbamoylpyridin-3-yl)methyl)-1H-pyrazol-4-yl)-6-(3-chloro-6-(difluoromethyl)-2-fluorophenvl)pyrazine-2-carboxamide]
9.22	5.29	CC(c1cnc(N2CC[C@H]2CN2CC(C(C)(C)O)C2)nc1)n1cc(NC(=O)c2cncc(-c3c(C(F)F)ccc(Cl)c3F)n2)cn1 (stereo partly drawn) [Example 175, 6-(3-Chloro-6-(difluoromethyl)-2-fluorophenyl)-N-(1-(1-(2-((S)-2-((3-(2-hydroxypropan-2-yl)azetidin-1-yl)methyl)azetidin-1-yl)pyrimidin-5-yl)ethyl)-1H-pyrazol-4-yl)pyrazine-2-carboxamide]
9.22	5.26	C[C@H](F)CN(C)CC1CCCN1c1ncc(Cn2cc(NC(=O)c3cncc(-c4c(C(F)F)ccc(Cl)c4F)n3)cn2)cn1 (stereo partly drawn) [Example 147, 6-(3-Chloro-6-(difluoromethyl)-2-fluorophenyl)-N-(1-((2-(2-((((S)-2-fluoropropyl)(methyl)amino)methyl)pyrrolidin-1-yl)pyrimidin-5-yl)methyl)-1H-pyrazol-4-yl)pyrazine-2-carboxamide]
8.41	6.19	Cc1cc(N2CCC2)ncc1[C@H](C)n1cc(NC(=O)c2cncc(-c3c(C(F)F)ccc(Cl)c3F)n2)cn1 (single isomer, unassigned) [Example 66]
9.22	6.19	O=C(Nc1cnn(Cc2cnc(N3C[C@H]4C[C@H]4[C@H]3CNCC(O)C(F)F)nc2)c1)c1cncc(-c2c(C(F)F)ccc(Cl)c2F)n1 (stereo partly drawn) [Example 150, 6-(3-Chloro-6-(difluoromethyl)-2-fluorophenyl)-N-(1-((2-((1R,2S,5S)-2-(((3,3-difluoro-2-hydroxypropyl)amino)methyl)-3-azabicyclo[3.1.0]hexan-3-yl)pyrimidin-5-yl)methyl)-1H-pyrazol-4-yl)pyrazine-2-carboxamide]
9.40	6.28	C[C@H](CO)NC[C@@H]1[C@@H]2C[C@@H]2CN1c1ncc(Cn2cc(NC(=O)c3cncc(-c4c(C(F)F)ccc(Cl)c4F)n3)cn2)cn1 [Example 143, 6-(3-Chloro-6-(difluoromethyl)-2-fluorophenyl)-N-(1-((2-((1R,2S,5S)-2-((((R)-1-hydroxypropan-2-yl)amino)methyl)-3-azabicyclo[3.1.0]hexan-3-yl)pyrimidin-5-yl)methyl)-1H-pyrazol-4-yl)pyrazine-2-carboxamide]
7.73	5.30	C[C@@H](c1cnc(N2CC(F)C2)nc1)n1cc(NC(=O)c2cncc(-c3c(C(F)F)ccc(Cl)c3F)n2)cn1 [Example 92, (S)-6-(3-Chloro-6-(difluoromethyl)-2-fluorophenyl)-N-(1-(1-(2-(3-fluoroazetidin-1-yl)pyrimidin-5-yl)ethyl)-1H-pyrazol-4-yl)pyrazine-2-carboxamide]
